These results are taken from patent US20090202451A1, “ORAL CARE PRODUCT AND METHODS OF USE AND MANUFACTURE THEREOF” (COLGATE-PALMOLIVE COMPANY, priority 2008, published 2009).

Molecules are shown by their SMILES.

In this assay the test system is S. sanguis. The assay can be described thus: Ammonia production by S. sanguis at pH 4.0. The class given is cell-based. The following applies: 5 millimolar amino acid, 0.1% sucrose, pH 4.0, 37° C., 30 minutes. The protocol:
An overnight culture of S. sanguis was grown at 37° C. in trypticase soy broth (Becton Dickinson, Sparks, Md.). The culture was centrifuged at 5,000 rpm for 5 minutes at 1 milliliter at a time into preweighed tubes in order to accumulate approximately 5 milligrams of wet pellet weight. The pellet was then resuspended into 20 millimolar potassium phosphate buffer (J T Baker, Phillipsburg, N.J.), pH 4.0, to simulate a stressed environment for the bacterial cell where ammonia would be produced for survival. The final concentration was 5 milligram per milliliter. To this final concentration, a 5 millimolar final concentration of L-arginine. L-citrulline, or L-ornithine was added along with a 0.1% final concentration of sucrose (VWR, West Chester, Pa.). This mixture was then incubated at 37° C. in a shaking water bath for 30 minutes before ammonia production was determined.
In order to analyze for ammonia, an Ammonia Assay kit was used from Diagnostic Chemicals Limited (Oxford, Conn.). The intended use of this specific kit is for the in vitro quantification of ammonia in plasma, but the procedure was modified in order to determine and quantify the ammonia production in plaque and/or bacteria.

On to `N=C(N)NCCC[C@H](N)C(=O)O` [L-Arginine, L-arginine], for which the Ammonia is, setting by setting: (Trial 3) 2.20 ppm; (Trial 5) 0.5 ppm.
